Test results: patent US11414385B2, “Compounds and methods for treating, detecting, and identifying compounds to treat apicomplexan parasitic diseases” (The University of Chicago, priority 2015, dated 2022)

What was measured:
[1] = tested on: T. gondii tachyzoites (RH-YFP strain); experiment: In vitro challenge assay for Toxoplasma tachyzoites (RH-YFP in HFF, fluorescence); assay type: cell-based, Toxoplasma gondii
Procedure: Human foreskin fibroblasts (HFF) were cultured on a flat, clear-bottomed, black 96-well plate to 90% to 100% confluence. IMDM (1×, [+] glutamine, [+] 25 mM HEPES, [+] Phenol red, 10% FBS [gibco, Denmark]) was removed from each well and replaced with IMDM-C (1×, [+] glutamine, [+] 25 mM HEPES, [−] Phenol red, 10% FBS)[Gibco, Denmark]). Type I RH parasites expressing Yellow Fluorescent Protein (RH-YFP) were lysed from host cells by double passage through a 27-gauge needle. Parasites were counted and diluted to 32,000/mL in IMDM-C. Fibroblast cultures were infected with 3200 tachyzoites of the Type I RH-YFP strain and returned to incubator at 37° C. for 1-2 hours to allow for infection. Diluted solutions of the compounds were made using IMDM-C, and 20 μl were added to each designated well, with triplicates for each condition. Controls included pyrimethamine/sulfadiazine (current standard of treatment), DMSO only, fibroblast only, and an untreated YFP gradient with 2 fold dilutions of the parasite. Cells were incubated at 37° C. for 72 hours. The plates were read using a fluorimeter (Synergy H4 Hybrid Reader, BioTek) To ascertain the amount of yellow fluorescent protein, in relative fluorescence units (RFU), as a measure of parasite burden after treatment. Compounds were not considered effective or pursued for further analysis if there were no signs of inhibition at 1 μM. Data was collected using Gen5 software and analyzed with Excel.
Protocol adapted from Fomovska, et. al. (18,19). Human foreskin fibroblasts (HFF) were cultured on a flat, clear-bottomed, black 96-well plate to 90% to 100% confluence. IMDM (1×, [+] glutamine, [+] 25 mM HEPES, [+] Phenol red, 10% FBS [gibco, Denmark]) was removed from each well and replaced with IMDM-C (1×, [+] glutamine, [+] 25 mM HEPES, [−] Phenol red, 10% FBS)[gibco, Denmark]). Type I RH parasites expressing Yellow Fluorescent Protein (RH-YFP) were lysed from host cells by double passage through a 27-gauge needle. Parasites were counted and diluted to 32,000/mL in IMDM-C. Fibroblast cultures were infected with 3200 tachyzoites of the Type I RH strain expressing Yellow Fluorescent Protein (RH-YFP) and returned to incubator at 37° C. for 1-2 hours to allow for infection (15). Various concentrations of the compounds were made using IMDM-C, and 20 μl were added to each designated well, with triplicates for each condition. Controls included pyrimethamine/sulfadiazine (current standard of treatment), 0.1% DMSO only, fibroblast only, and an untreated YFP gradient with 2 fold dilutions of the parasite. Cells were incubated at 37° C. for 72 hours. Plates were read using a fluorimeter (Synergy H4 Hybrid Reader, BioTek) to ascertain the amount of yellow fluorescent protein, in relative fluorescence units (RFU), as a measure of parasite burden after treatment. Data was collected using Gen5 software. IC50 was calculated by graphical analysis in Excel.
An initial screening assay of 10 μM, 1 μM, 100 nM, and 10 nM was performed. Compounds were not considered effective or pursued for further analysis if there were no signs of inhibition of tachyzoites at 1 μM. If compounds did appear to be effective at 1 μM, another experiment was conducted to assess effect at 1 μM, 500 nM, 250 nM, 125 nM, 62.5 nM, and 31.25 nM.
Protocol adapted from Fomovska, et. al. (Fomovska A, Huang Q, El Bissati K, Mui E J, Witola W H, Cheng G, et al. Novel N-Benzoyl-2-Hydroxybenzamide Disrupts Unique Parasite Secretory Pathway. Antimicrob Agents Chemother [Internet]. 2012 May [cited 2015 Jul. 8]; 56(5):2666-82; Fomovska A, Wood R D, Mui E, Dubey J P, Ferreira L R, Hickman M R, et al. Salicylanilide inhibitors of Toxoplasma gondii. J Med Chem. 2012 Oct. 11; 55(19):8375-91.). Human foreskin fibroblasts (HFF) were cultured on a flat, clear-bottomed, black 96-well plate to 90% to 100% confluence. […]

[2] = tested on: T. gondii bradyzoites (EGS strain); experiment: EGS strain bradyzoite assay (cysts in HFF, dolichos/BAG1 staining); assay type: cell-based, Toxoplasma gondii; details: 5 and 10 μM, in HFF
Procedure: (§1) HFF cells were grown in IMDM (1×, [+] glutamine, [+] 25 mM HEPES, [+] Phenol red, 10% FBS, [Gibco, Denmark]) on removable, sterile glass disks in the bottom of a clear, flat-bottomed 24-well plate. Cultures were infected with 3×10^4 parasites (EGS strain) per well, in 0.5 mL media and plate was returned to incubator at 37° C. overnight. The following day, the media was removed and clear IMDM and compounds were added to making various concentrations of the drug, to a total volume of 0.5 mL. Two wells were filled with media only, as a control. Plates were returned to the 37° C. incubator for 72 hours.
Efficacy was determined following fixation. Staining was used to determine the numbers of cysts in cultures without and with treatment with the test compounds. Cells were fixed using 4% paraformaldehyde and stained with Fluorescein-labeled Dolichos Biflorus Agglutinin, DAPI, and anti-BAG1, and anti-SAG1. Disks were removed and mounted onto glass slides and visualized using microscopy (Nikon Tl7). Slides were also scanned using a CRi Pannoramic Scan Whole Slide Scanner and viewed using Panoramic Viewer Software.
as §1, with “[gibco,” for “[Gibco,”, “2” for “Two”, “72 hours, and checked once every 24” for “72”, “hours. If tachyzoites were visible in the control before 72 hours, the cells were fixed and stained.” for “hours.”
Cells were fixed using 4% paraformaldehyde and stained with Fluorescein-labeled Dolichos Biflorus Agglutinin, DAPI, and BAG1. Disks were removed and mounted onto glass slides and visualized using microscopy (Nikon Tl7). Slides were scanned using a CRi Pannoramic Scan Whole Slide Scanner and viewed using Panoramic Viewer Software. Effects of the compounds were quantified by counting cysts in the controls and treated cells. Cysts and persisting organisms were counted in a representative field of view and then multiplied by a factor determined by the total area of the disk in order to estimate the number of cysts and organisms in each condition.
HFF cells were grown in IMDM (1×, [+] glutamine, [+] 25 mM HEPES, [+] Phenol red, 10% FBS, [gibco, Denmark]) on removable, sterile glass disks in the bottom of a clear, flat-bottomed 24-well plate. Cultures were infected with 3×10^4 parasites (EGS strain) per well, in 0.5 mL media and plate was returned to incubator at 37° C. overnight. The following day, the media was removed and clear IMDM and compounds were added to making various concentrations of the drug, to a total volume of 0.5 mL. 2 wells were filled with media only, as a control. Plates were returned to the 37° C. incubator for 72 hours, and checked once every 24 hours. If tachyzoites were visible in the control before 72 hours, the cells were fixed and stained. Cells were fixed using 4% paraformaldehyde and stained with Fluorescein-labeled Dolichos Biflorus Agglutinin, DAPI, and BAG1. Disks were removed and mounted onto glass slides and visualized using microscopy (Nikon Tl7). Slides were scanned using a CRi Pannoramic Scan Whole Slide Scanner and viewed using Panoramic Viewer Software. Effects of the compounds were quantified by counting cysts in the controls and treated cells. Cysts and persisting organisms were counted in a representative field of view and then multiplied by a factor determined by the total area of the disk in order to estimate the number of cysts and organisms in each condition. Data was collected using Gen5 software. IC50 was calculated by graphical analysis in Excel.

[3] = molecular target: T1, Plasmodium falciparum bc1 complex cytochrome c reductase (Pfbc1) (Plasmodium falciparum, UniProt Q02768); experiment: Pfbc1 native assay (cytochrome c reduction by parasite extract); assay type: biochemical; details: compound 1 μM; mean ± s.e.m. of 4 independent experiments
T1 construct: Parasite extract was then prepared by disruption with a sonicating probe; endogenous in cells; host or cells: P. falciparum 3D7 blood-stage parasites, saponin-freed and sonicated (crude parasite extract)
T1 sequence (Q02768 1-376): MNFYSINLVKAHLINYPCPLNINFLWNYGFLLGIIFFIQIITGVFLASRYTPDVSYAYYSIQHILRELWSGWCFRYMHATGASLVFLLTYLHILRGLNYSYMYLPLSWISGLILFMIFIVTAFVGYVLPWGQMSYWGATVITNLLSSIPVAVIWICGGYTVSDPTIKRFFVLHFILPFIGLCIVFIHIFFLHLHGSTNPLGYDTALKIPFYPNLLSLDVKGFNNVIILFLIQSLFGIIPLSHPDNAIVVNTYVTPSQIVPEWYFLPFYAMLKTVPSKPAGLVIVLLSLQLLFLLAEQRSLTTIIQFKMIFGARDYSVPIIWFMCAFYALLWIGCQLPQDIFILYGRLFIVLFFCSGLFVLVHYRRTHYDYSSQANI
Procedure: Plasmodium falciparum: 3D7 strain was obtained from the Liverpool School of Tropical Medicine. Protease cocktail inhibitor was obtained from Roche. Bradford protein assay dye reagent was obtained from Bio-Rad. All other reagents were obtained from Sigma-Aldrich. Decylubiquinol was produced as per Fisher et al. (Fisher et al. 2004)^21. In brief, 25 mg of decylubiquinone were dissolved in 400 μl of nitrogen-saturated hexane. An equal volume of aqueous 1 M sodium dithionite was added, and the mixture vortexed until colorless. The organic phase containing the decylubiquinol was collected, the solvent was evaporated under N2 and the decylubiquinol finally dissolved in 100 μl of 96% ethanol (acidified with 10 mM HCl). Concentrations of decylubiquinol was determined spectrophotometrically on a Cary 300 Bio UV/visible spectrophotometer (Varian, UK) from absolute spectra, using ε288-320=8.1 mM-1·cm^−1. Decylubiquinol was stored at −80° C. and used within two weeks.
The protocol for the preparation of parasite extract was adapted from Fisher et al. (Fisher et al. 2009)^22. Free parasites were prepared from infected erythrocytes pooled from five T75 flasks, by adding 5 volumes of 0.15% (w/v) saponin in phosphate-buffered saline (137 mM NaCl, 2.7 mM KCl, 1.76 mM K2HPO4, 8.0 mM Na2HPO4, 5.5 mM D-glucose, pH 7.4) for 5 min, followed by three washes by centrifugation in RPMI containing HEPES (25 mM), and a final resuspension in potassium phosphate buffer (50 mM K2HPO4, 50 mM KH2PO4, 2 mM EDTA, pH7.4) containing a protease inhibitor cocktail (Complete Mini; Roche). Parasite extract was then prepared by disruption with a sonicating probe for 5 s, followed by a 1 min rest period on ice to prevent the sample overheating. […] The protein concentration of the parasite extract was determined by Bradford protein assay (Bio-Rad).
Plasmodium falciparum bc1 complex cytochrome c reductase (Pfbc1) activity was measured by monitoring cytochrome c reduction at 550 versus 542 nm using a Cary 300 Bio UV-Visible Spectrophotometer (Varian, UK), using a protocol adapted from Fisher et al. (Fisher et al. 2009)^21-23. […]

Row | Compound | effect on tachyzoite replication ([1]; 5 and 10 μM, vs off target control) | effect on size and number of EGS cysts [2] | IC50 ([1]; Toxoplasma gondii, RH-YFP, read-out: Tachy IC50) | Inhibition of cytochrome c reduction (% atovaquone response) [3]
1 | Vivoporter-PMOs: "Vivo-PMO (Vivo porter linked to morpholinos) to knock down cytochrome b"; sequence 5′ AGTGTTCTCGAAACCATGCTAACAC 3′ (SEQ ID NO: 5) (all phosphorodiamidate morpholino (PMO); Vivo-Porter delivery moiety attached to morpholino, further chemistry not fully specified; listed as Homo sapiens) [reference compound] | modest effect | small effect |  | 
2 | O=c1c2c([nH]c(CO)c1-c1ccc(Oc3ccc(OC(F)(F)F)cc3)cc1)CCCC2 [JAG099, 3(4-(4-Trifluoromethoxyphenoxy)phenyl)-2-(methylhydroxy)-5,6,7,8-tetrahydroquinolin-4(1H)-one] |  |  | 320 nM | 81.3 ± 6.0 % atovaquone response
